Assay results published in patent US8026218B2, “Bifunctional analgesic compounds for opioid receptor agonists and neurokinin-1 receptor antagonists” (The University of Arizona, priority 2006, dated 2011).
Read-outs that look alike come from different tables or passages of the source. Bridge positions count the residues as written; N and C are the ends. Square brackets hold non-standard residues; d marks the D form. Peptide text beside a SMILES is read from it. * marks the point of attachment. NH(3,5-(CF3)2-benzyl) = FC(F)(F)c1cc(CN*)cc(C(F)(F)F)c1; dPen = CC(C)(S)[C@@H](N)C(=O)O; Nle = CCCC[C@H](N)C(=O)O

Columns and labels:
[1] = biological target: T1, rat μ opioid receptors (rMOR) (Rattus norvegicus, UniProt P33535); experiment: Radioligand competition binding, [3H]DAMGO, rMOR membranes; details: for LogIC50, rMOR, [3H]DAMGO: membranes from transfected HN9.10 cells
T1 construct: expressed in transfected cells; host or cells: HN9.10 neuroblastoma cell line, pCDNA3, neomycin-selected clones
T1 sequence (P33535 whole entry): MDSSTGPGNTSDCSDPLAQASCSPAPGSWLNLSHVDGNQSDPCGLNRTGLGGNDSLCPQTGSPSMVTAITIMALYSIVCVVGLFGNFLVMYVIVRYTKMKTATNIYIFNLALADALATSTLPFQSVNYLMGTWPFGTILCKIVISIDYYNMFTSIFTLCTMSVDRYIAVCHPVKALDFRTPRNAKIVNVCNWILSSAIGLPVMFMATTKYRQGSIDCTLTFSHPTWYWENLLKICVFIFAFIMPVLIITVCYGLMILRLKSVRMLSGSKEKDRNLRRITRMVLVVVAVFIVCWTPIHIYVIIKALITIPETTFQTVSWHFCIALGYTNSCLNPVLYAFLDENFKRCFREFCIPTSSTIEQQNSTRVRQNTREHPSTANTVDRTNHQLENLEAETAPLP

[2] = biological target: T2, human NK1 receptor (hNK1) (Homo sapiens, UniProt P25103); experiment: Radioligand competition binding, [3H]-Substance P, hNK1
T2 construct: expressed in transfected cells
T2 sequence (P25103 whole entry): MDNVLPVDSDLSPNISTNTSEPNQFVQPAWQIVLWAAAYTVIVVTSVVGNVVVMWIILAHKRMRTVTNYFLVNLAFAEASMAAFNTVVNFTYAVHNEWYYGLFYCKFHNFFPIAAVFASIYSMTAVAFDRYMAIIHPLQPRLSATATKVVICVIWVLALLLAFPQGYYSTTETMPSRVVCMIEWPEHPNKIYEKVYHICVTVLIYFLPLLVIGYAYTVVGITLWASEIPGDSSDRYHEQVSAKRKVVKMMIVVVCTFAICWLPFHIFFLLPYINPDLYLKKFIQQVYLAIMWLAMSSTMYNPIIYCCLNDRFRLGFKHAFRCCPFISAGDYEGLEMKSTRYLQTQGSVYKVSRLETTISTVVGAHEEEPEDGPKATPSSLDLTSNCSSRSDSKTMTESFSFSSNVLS

[3] = biological target: T3, δ opioid receptors (MVD) (Mus musculus, UniProt P32300); experiment: Mouse isolated vas deferens (MVD) assay, opioid agonist
T3 construct: from tissue; host or cells: mouse (ICR) isolated vas deferens
T3 sequence (P32300 whole entry): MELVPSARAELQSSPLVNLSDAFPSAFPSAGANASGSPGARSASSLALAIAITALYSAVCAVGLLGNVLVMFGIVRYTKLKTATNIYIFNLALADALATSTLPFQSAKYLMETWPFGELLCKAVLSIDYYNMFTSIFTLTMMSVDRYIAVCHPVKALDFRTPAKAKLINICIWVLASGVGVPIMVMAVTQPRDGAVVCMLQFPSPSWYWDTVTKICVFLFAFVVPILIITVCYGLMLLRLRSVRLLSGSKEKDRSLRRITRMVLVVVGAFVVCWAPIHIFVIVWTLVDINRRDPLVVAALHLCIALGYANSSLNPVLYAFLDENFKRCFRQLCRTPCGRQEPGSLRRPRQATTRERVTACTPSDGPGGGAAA

[4] = biological target: T4, Substance P receptors (guinea pig NK1) (Cavia porcellus, UniProt P30547); experiment: Guinea pig isolated ileum (GPI) assay with substance P stimulation in presence of 1 μM naloxone; details: for GPI/LMMP SP Agonist (IC50; nM): Table 39; for activation at 1 µM: read-out: Substance P GPI agonist (A50), contraction relative to initial muscle contraction with KCl
T4 construct: from tissue; host or cells: guinea pig (Hartley) ileum LMMP, 1 μM naloxone present
T4 sequence (P30547 whole entry): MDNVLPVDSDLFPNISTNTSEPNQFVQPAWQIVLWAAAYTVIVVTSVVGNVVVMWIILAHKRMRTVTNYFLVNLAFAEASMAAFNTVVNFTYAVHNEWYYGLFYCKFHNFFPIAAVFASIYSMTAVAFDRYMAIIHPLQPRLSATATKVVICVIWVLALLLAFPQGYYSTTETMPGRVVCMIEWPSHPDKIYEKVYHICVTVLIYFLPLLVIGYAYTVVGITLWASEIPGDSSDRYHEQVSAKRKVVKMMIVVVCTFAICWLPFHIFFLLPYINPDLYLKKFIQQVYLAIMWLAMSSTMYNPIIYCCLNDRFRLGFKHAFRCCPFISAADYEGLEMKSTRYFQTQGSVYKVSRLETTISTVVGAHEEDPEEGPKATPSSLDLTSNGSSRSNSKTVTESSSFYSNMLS
Procedure: Testing stopped at 1 mM concentrations of the test compound.
Analysis of GPI and MVD assays. For opioid data analysis, percentage inhibition was calculated using the average tissue contraction height for 1 min preceding the addition of the agonist divided by the contraction height 3 min after exposure to the dose of agonist. […] IC50 and Emax estimates were determined by computerized nonlinear least-squares analysis (the pharmacological statistics package FlashCalc: Dr. Michael Ossipov, University of Arizona, Tucson, Ariz.). […] A50 values represent the mean of not less than 4 tissues. A50 and Emax estimates were determined by computerized nonlinear least-squares analysis (FlashCalc).

[5] = In vitro stability in rat plasma at 37° C.; format: in vitro ADME; details: for half-life at 50 μg/mL: rat, rat plasma, FIG. 47, read-out: T1/2 in rat plasma
Procedure: The derivative compounds were tested for their metabolite stability. The compounds were incubated in rat plasma at 37° C., and aliquots were withdrawn at various time points and analyzed by HPLC to determine the concentration of remaining compound derivatives (FIGS. 15-16, 36, and 47-48).
In Vitro Stability of compound derivatives in Rat Plasm (Yamamoto, 2007, J. Am. Chem. Soc. submitted). Stock solution of compounds (50 mg/mL in DMSO) were diluted 1000-fold into rat plasma (Lot 24927, Pel-Freez Biologicals, Rogers, Ak.) to result in an incubation concentration of 50 μg/mL. All samples were incubated at 37° C. for 6 h, and 200 μL of aliquots were withdrawn at 1 h, 2 h, 4 h and 6 h. […] The samples were run in triplicate. Discussion.

[6] = biological target: T5, human δ opioid receptors (hDOR) (Homo sapiens, UniProt P41143); experiment: Radioligand competition binding, [3H]DPDPE, hDOR membranes
T5 construct: expressed in transfected cells; host or cells: HN9.10 neuroblastoma cell line, pCDNA3, neomycin-selected clones
T5 sequence (P41143 whole entry): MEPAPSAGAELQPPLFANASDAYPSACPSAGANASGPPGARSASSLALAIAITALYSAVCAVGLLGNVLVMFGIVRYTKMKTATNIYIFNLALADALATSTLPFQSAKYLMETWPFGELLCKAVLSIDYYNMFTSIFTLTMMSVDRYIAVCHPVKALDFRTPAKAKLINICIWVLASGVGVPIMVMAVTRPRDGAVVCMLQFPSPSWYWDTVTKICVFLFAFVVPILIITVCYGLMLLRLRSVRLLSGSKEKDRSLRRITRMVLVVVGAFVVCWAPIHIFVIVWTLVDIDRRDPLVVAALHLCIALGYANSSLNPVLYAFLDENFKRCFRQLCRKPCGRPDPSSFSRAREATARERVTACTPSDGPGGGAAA

[7] = biological target: T6, rat NK1 (rNK1) receptor (Rattus norvegicus, UniProt P14600); experiment: Radioligand competition binding, [3H]substance P, rNK1/CHO membranes; details: for IC50: membranes from transfected CHO cells
T6 construct: expressed in transfected cells; host or cells: CHO (rNK-1/CHO cell line from Dr. James Krause)
T6 sequence (P14600 whole entry): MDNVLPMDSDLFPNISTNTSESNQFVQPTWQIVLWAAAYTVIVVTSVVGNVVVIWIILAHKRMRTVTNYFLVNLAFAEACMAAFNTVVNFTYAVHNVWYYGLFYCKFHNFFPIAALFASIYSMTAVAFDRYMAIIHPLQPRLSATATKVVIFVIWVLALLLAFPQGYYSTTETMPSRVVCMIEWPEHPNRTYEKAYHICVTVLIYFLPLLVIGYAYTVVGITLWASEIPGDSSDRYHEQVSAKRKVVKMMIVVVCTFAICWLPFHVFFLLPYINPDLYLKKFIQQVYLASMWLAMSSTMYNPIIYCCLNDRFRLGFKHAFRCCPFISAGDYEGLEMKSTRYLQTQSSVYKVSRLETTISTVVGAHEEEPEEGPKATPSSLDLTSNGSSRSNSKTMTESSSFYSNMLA

[8] = biological target: T5, human δ opioid receptors (hDOR); experiment: [35S]GTP-γ-S binding assay, hDOR; format: biochemical
[9] = biological target: T1, rat μ opioid receptors (rMOR); experiment: biochemical; format: biochemical
[10] = test system: μ opioid receptors (GPI); experiment: Guinea pig isolated ileum (GPI) assay, opioid agonist; set-up: GPI/LMMP Opioid(m) Agonist, % inh.: unit of the concentration uncertain;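 also: inhibition of electrically evoked contractions (0.1 Hz, 0.4 msec, supramaximal voltage) in organ baths at 37 °C, contraction height 3 min after each cumulative dose versus the 1 min before dosing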
[11] = IC50, rNK1, Substance P radioligand
[12] = Table 39, read-out: GTP binding hDOR Emax
[13] = Table 27, read-out: GTP binding rMOR EC50
[14] = Table 27, read-out: GTP binding rMOR Emax (%)
[15] = Table 39, read-out: GTP binding rMOR EC50
[16] = Table 39, read-out: GTP binding rMOR Emax
[17] = net total bound/basal binding × 100, read-out: Emax, rMOR, [35S]GTP-γ-S binding
[18] = read-out: EC50, rMOR, [35S]GTP-γ-S binding
[19] = Table 28, read-out: MVD Opioid (d) Agonist (IC50; nM)
[20] = Table 39, read-out: MVD opioid(delta) agonist (IC50; nM)
[21] = electrically stimulated isolated tissue, read-out: MVD (δ), IC50
[22] = Table 39, read-out: GPI/LMMP opioid(mu) agonist (IC50; nM)
[23] = Substance P antagonist, GPI, Ke, in the presence of 1 μM naloxone

CCCC[C@H](NC(=O)[C@H](Cc1ccccc1)NC(=O)CNC(=O)[C@@H](C)NC(=O)[C@@H](N)Cc1ccc(O)cc1)C(=O)N1CCC[C@H]1C(=O)N[C@@H](CC(C)C)C(=O)N[C@@H](COC1O[C@H](CO)[C@@H](O)[C@H](O)[C@H]1O)C(=O)N[C@@H](Cc1c[nH]c2ccccc12)C(=O)NCc1cc(C(F)(F)F)cc(C(F)(F)F)c1 (stereo partly drawn) [TY055]
Ki [1]: 30 nM | Ki [2]: 0.052 nM | IC50 [3]: 17.4 nM | GPI/LMMP SP Agonist (IC50; nM) ([4]; at 30 nM): none | stability in the rat plasma ([5]; words): stable

CC(C)C[C@H](NC(=O)[C@@H]1CCCN1C(=O)CNC(=O)[C@H](Cc1ccccc1)NC(=O)CNC(=O)[C@@H](C)NC(=O)[C@@H](N)Cc1ccc(O)cc1)C(=O)N[C@@H](Cc1c[nH]c2ccccc12)C(=O)OCc1cc(C(F)(F)F)cc(C(F)(F)F)c1 [TY006, H-Tyr-D-Ala-Gly-Phe-Gly-Pro-Leu-Trp-O-3,5-Bzl(CF3)2] (HELM PEPTIDE1{Y.[dA].G.F.G.P.L.W.[FC(F)(F)c1cc(CO[*:1])cc(C(F)(F)F)c1]}$$$$V2.0)
Ki ([6]; Table 27, read-out: Affinity hDOR (Ki; nM)): 36.1 nM | Ki ([6]; Table 39, read-out: Affinity hDOR (Ki; nM)): 36.1 nM | Ki ([6]; read-out: Ki, hDOR, [3H]DPDPE): 36.1 nM | Ki ([1]; Table 27, read-out: Affinity rMOR (Ki; nM)): 27 nM | Ki ([1]; Table 39, read-out: Affinity rMOR (Ki; nM)): 27 nM | LogIC50, rMOR, [3H]DAMGO [1]: −7.24 ± 0.15 | Ki ([1]; read-out: Ki, rMOR, [3H]DAMGO): 27 nM | IC50 [7, 11]: 15.6 nM | Ki [2]: 0.016 nM | LogEC50, hDOR, [35S]GTP-γ-S binding [8]: −7.30 ± 0.24 | EC50 ([8]; Table 27, read-out: GTP binding hDOR EC50): 50.2 nM | Emax ([8]; Table 27, read-out: GTP binding hDOR Emax (%)): 33.6% | EC50 ([8]; Table 39, read-out: GTP binding hDOR EC50): 50.2 nM | Emax [8, 12]: 33.6% | Emax ([8]; net total bound/basal binding × 100, read-out: Emax, hDOR, [35S]GTP-γ-S binding): 35% | EC50 ([8]; read-out: EC50, hDOR, [35S]GTP-γ-S binding): 50.2 nM | LogEC50, rMOR, [35S]GTP-γ-S binding [9]: −7.38 ± 0.20 | EC50 [9, 13]: 41.7 nM | Emax [9, 14]: 35.9% | EC50 [9, 15]: 41.7 nM | Emax [9, 16]: 35.9% | Emax [9, 17]: 39% | EC50 [9, 18]: 41.7 nM | IC50 [3]: 172 ± 26 nM | IC50 [3, 19]: 172 nM | IC50 [3, 20]: 172 nM | IC50 [3, 21]: 171 nM | IC50 ([10]; Table 28, read-out: GPI/LMMP Opioid(m) Agonist (IC50; nM)): 384 nM | IC50 [10, 22]: 384 nM | IC50 ([10]; electrically stimulated isolated tissue, read-out: GPI (μ), IC50): 384 nM | IC50 [4]: 5.4 nM | Kb [4, 23]: 5.4 ± 1.4 nM | activation at 1 µM [4]: 0%

CSCC[C@H](NC(=O)[C@H](Cc1ccccc1)NC(=O)CNC(=O)[C@@H](C)NC(=O)[C@@H](N)Cc1c(C)cc(O)cc1C)C(=O)N1CCC[C@H]1C(=O)N[C@@H](CC(C)C)C(=O)N[C@@H](Cc1c[nH]c2ccccc12)C(=O)OCc1cc(C(F)(F)F)cc(C(F)(F)F)c1 [TY033]
Ki [6]: 0.22 nM | Ki [1]: 1.2 nM | Ki ([7]; Affinity rNK1 (Ki; nM), Table 29): 0.96 nM | Ki [2]: 1.2 nM | Emax [8, 12]: 200% | Emax [9, 16]: 59% | IC50 [3]: 1.27 nM | IC50 ([10]; Table 30, read-out: GPI/LMMP Opioid(m) Agonist (IC50; nM)): 100 nM | IC50 [10, 22]: 100 nM | Kb ([4]; GPI/LMMP Substance P Antagonist (Ke; nM), Table 30): 24.5 nM

CC(C)C[C@H](NC(=O)[C@@H]1CCCN1C(=O)[C@@H](Cc1ccccc1)NC(=O)[C@H](Cc1ccccc1)NC(=O)CNC(=O)[C@@H](C)NC(=O)[C@@H](N)Cc1ccc(O)cc1)C(=O)N[C@@H](Cc1c[nH]c2ccccc12)C(=O)OCc1cc(C(F)(F)F)cc(C(F)(F)F)c1 [TY007, H-Tyr-D-Ala-Gly-Phe-D-Phe-Pro-Leu-Trp-O-3,5-Bzl(CF3)2]
Ki [6]: 110 nM | Ki(μ)/Ki(δ) ([6]; binding, rMOR vs hDOR): 4.1 | LogIC50, hDOR, [3H]DPDPE ([6]; membranes from transfected HN9.10 cells): −6.70 ± 0.13 | Ki ([6]; read-out: Ki, hDOR, [3H]DPDPE): 93 nM | Ki [1]: 410 nM | LogIC50, rMOR, [3H]DAMGO [1]: −6.09 ± 0.15 | Ki ([1]; read-out: Ki, rMOR, [3H]DAMGO): 381 nM | IC50 [7, 11]: 66.7 nM | IC50 ([7]; LogIC50, rNK1, Substance P radioligand): 60.3 nM | Ki [2]: 1.3 nM | Ki(μ)/Ki(δ) [8]: 20.5 | LogEC50, hDOR, [35S]GTP-γ-S binding [8]: −7.78 ± 0.36 | Emax ([8]; read-out: Emax, hDOR, [35S]GTP-γ-S binding): 26% | EC50 ([8]; read-out: GTP binding hDOR EC50): 16.7 nM | Emax ([8]; read-out: GTP binding hDOR Emax): 22.9% | Emax ([8]; read-out: GTP binding hDOR Emax (%)): 22.9% | LogEC50, rMOR, [35S]GTP-γ-S binding [9]: −6.46 ± 0.38 | EC50 [9, 13]: 345 nM | Emax [9, 14]: 23.6% | EC50 [9, 15]: 345 nM | Emax [9, 16]: 23.6% | Emax [9, 17]: 22% | EC50 [9, 18]: 345 nM | IC50 [3, 19]: 412 nM | IC50 [3, 20]: 412 nM | IC50 [3, 21]: 412 ± 106 nM | GPI/LMMP Opioid(m) Agonist, % inh. ([10]; Table 28, at 1 (unit uncertain)): 9% inh. at 1 mM | GPI/LMMP opioid(mu) agonist, % ([10]; Table 39, concentration not given): 9.20% | GPI (μ), effect at single concentration ([10]; at 1 μM): 9% at 1 μM^b | Kb [4, 23]: 69.6 ± 7.1 nM | GPI/LMMP SP Agonist (IC50; nM) ([4]; concentration not given): none | activation at 1 µM [4]: 0%

C[C@@H](NC(=O)[C@@H](N)Cc1ccc(O)cc1)C(=O)N[C@@H](Cc1c[nH]c2ccccc12)C(=O)OCc1cc(C(F)(F)F)cc(C(F)(F)F)c1 [NP43]
Ki ([6]; Table 33, read-out: Ki (nM) hDOR): 100 nM | Ki ([1]; Table 33, read-out: Ki (nM) rMOR): 178 nM | Ki ([7]; Ki (nM) rNK1, Table 33): 2.94 nM | Ki [2]: 0.004 nM | EC50 ([8]; Table 33, read-out: GTP EC50 (nM) hDOR): 90.9 nM | EC50 ([9]; Table 33, read-out: GTP EC50 (nM) rMOR): 168 nM | MVD δ-agonist, % at 1 μM ([3]; Table 36, at 1 μM): 5.5% at 1 μM | GPI μ-agonist, % at 1 μM ([10]; Table 36, at 1 μM): 3.3% at 1 μM | Kb ([4]; GPI SP-antagonist Ke (nM), Table 36): 49.4 nM

CC(C)C[C@H](NC(=O)[C@@H]1CCCN1C(=O)[C@@H]1NC(=O)[C@H](Cc2ccccc2)NC(=O)CNC(=O)[C@H](NC(=O)[C@@H](N)Cc2ccc(O)cc2)C(C)(C)SSC1(C)C)C(=O)N[C@@H](Cc1c[nH]c2ccccc12)C(=O)NCc1cc(C(F)(F)F)cc(C(F)(F)F)c1 [TY049]
Ki ([7]; Affinity rNK1 (Ki; nM), Table 23): 4.54 nM | Ki [2]: 0.18 nM | Emax ([9]; read-out: GTP binding rMOR Emax): 25% | half-life at 50 μg/mL [5]: > 24 h

CCCC[C@@H]1NC(=O)[C@H](Cc2ccccc2)NC(=O)CNC(=O)[C@H](NC(=O)[C@@H](N)Cc2ccc(O)cc2)C(C)(C)SSC(C)(C)[C@H](C(=O)N[C@@H](Cc2c[nH]c3ccccc23)C(=O)NCc2cc(C(F)(F)F)cc(C(F)(F)F)c2)NC(=O)[C@@H]2CCCN2C1=O [TY048] (H-Y[dPen]GF[Nle]P[dPen]W-{NH(3,5-(CF3)2-benzyl)}; disulfide 2-7; N-terminus assumed)
Ki ([7]; Table 23, read-out: Affinity rNK1 (Ki; nM)): 26 nM | Emax [9, 16]: 29% | half-life at 50 μg/mL [5]: > 24 h
